Molecular target: T1, strychnine insensitive glycine binding site located on the NMDA receptor complex (Rattus norvegicus, UniProt P35439)
T1 construct: determined using the procedure of Kishimoto H. et al J. Neurochem 1981, 37, 1015-1024; from tissue
Experiment: biochemical
Details: not given

| Structure (SMILES) | Ki |
| --- | --- |
| O=C(/C=C1\CC(C(=O)[O-])Nc2cc(Cl)ccc21)Nc1ccccc1.[Na+] (racemic) [Example 2, (+/-)(E)7-Chloro-4-Phenylcarbamoylmethylene-1,2,3,4-Tetrahydro-Quinoline-2- Carboxylic Acid Sodium Salt] | 39.8 nM |

Same assay, conditions: strychnine insensitive glycine binding site; read-out: pKi (converted)

| Structure (SMILES) | Ki |
| --- | --- |
| CC(=O)NCCc1ccc(NC(=O)/C=C2\CC(C(=O)O)Nc3cc(Cl)cc(Cl)c32)cc1 (racemic) [Example 18, (+/-)(E)-5,7-Dichloro-4-[4-(2-Acetylamino-Ethyl)Phenylcarbamoylmethylene]-1,2,3,4-Tetrahydro-Quinoline-2-Carboxylic Acid] | 12.6 nM |
| O=C(/C=C1\CC(C(=O)O)Nc2cc(Br)cc(Br)c21)Nc1ccccc1 (racemic) [Example 21, (+/-)-(E)-5,7-Dibromo-4-Phenylcarbamoylmethylene-1,2,3,4-Tetrahydroquinoline-2-Carboxylic Acid] | 26.3 nM |
| NC(=O)NCc1ccc(NC(=O)/C=C2\CC(C(=O)O)Nc3cc(Cl)cc(Cl)c32)cc1 (racemic) [Example 9, (+/-)(E)-5,7-Dichloro-4-[4(Ureidomethyl)Phenylcarbamoylmethylene]-1,2,3,4-Tetrahydro-Quinoline-2-Carboxylic Acid] | 3.98 nM |
| O=C(O)Cc1ccc(NC(=O)/C=C2\CC(C(=O)O)Nc3cc(Cl)cc(Cl)c32)cc1 (racemic) [Example 15, (+/-)(E)-4-(4-Carboxymethyl-Phenylcarbamoylmethylene)-5,7-Dichloro-1,2,3,4-Tetrahydro-Quinoline-2-Carboxylic Acid] | 19.1 nM |
| CC(C)C(=O)Nc1ccc(NC(=O)/C=C2\CC(C(=O)O)Nc3cc(Cl)cc(Cl)c32)cc1 (racemic) [Example 12, (+/-)(E)-5,7-Dichloro-4-[4(Isobutyrylamino)Phenylcarbomoylmethylene]-1,2,3,4-Tetrahydro-Quinoline-2-Carboxylic Acid] | 15.8 nM |
| O=C(/C=C1\CC(C(=O)O)Nc2cc(Cl)cc(Cl)c21)Nc1ccc(CN2CCOCC2)cc1 (racemic) [Example 14, (+/-)(E)-5,7-Dichloro-4-(4-Morpholin-4-Ylmethyl-Phenylcarbamoylmethylene)-1,2,3,4-Tetrahydro-Quinoline-2-Carboxylic Acid] | 7.94 nM |
| NC(=O)Cc1ccc(NC(=O)/C=C2\CC(C(=O)O)Nc3cc(Cl)cc(Cl)c32)cc1 (racemic) [Example 16, (+/-)(E)-5,7-Dichloro-4-(4-Carbamoylmethyl-Phenylcarbamoylmethylene)-1,2,3,4-Tetrahydro-Quinoline-2-Carboxylic Acid] | 6.61 nM |
| CC(=O)Nc1cccc(NC(=O)/C=C2\CC(C(=O)O)Nc3cc(Cl)cc(Cl)c32)c1 (racemic) [Example 6, (+/-)(E)-4-(3-Acetylamino-Phenylcarbamoylmethylene)-5,7-Dichloro-1,2,3,4-Tetrahydro-Quinoline-2-Carboxylic Acid] | 15.8 nM |
| CC(=O)Nc1ccc(NC(=O)/C=C2\CC(C(=O)O)Nc3cc(Cl)cc(Cl)c32)cc1 (racemic) [Example 5, (+/-)(E)-4-(4-Acetylamino-Phenylcarbamoylmethylene)-5,7-Dichloro-1,2,3,4-Tetrahydro-Quinoline-2-Carboxylic Acid] | 7.94 nM |
| CC(=O)NCc1ccc(NC(=O)/C=C2\CC(C(=O)O)Nc3cc(Cl)cc(Cl)c32)cc1 (racemic) [Example 11, (+/-)(E)-5,7-Dichloro-4-[4(Acetylaminomethyl)Phenylcarbomoylmethylene]-1,2,3,4-Tetrahydro-Quinoline-2-Carboxylic Acid] | 5.01 nM |
| CC(C)C(=O)NCc1ccc(NC(=O)/C=C2\CC(C(=O)O)Nc3cc(Cl)cc(Cl)c32)cc1 (racemic) [Example 13] | 15.8 nM |
| O=CNCc1ccc(NC(=O)/C=C2\CC(C(=O)O)Nc3cc(Cl)cc(Cl)c32)cc1 (racemic) [Example 10, (+/-)(E)-5,7-Dichloro-4-[4(Formylaminomethyl)Phenylcarbomoylmethylene]-1,2,3,4-Tetrahydro-Quinoline-2-Carboxylic Acid] | 5.01 nM |
| CC(C)C(=O)NCCc1ccc(NC(=O)/C=C2\CC(C(=O)O)Nc3cc(Cl)cc(Cl)c32)cc1 (racemic) [Example 17, (+/-)(E)-5,7-Dichloro-4-[4-(2-Isobutyrylamino-Ethyl)Phenylcarbamoylmethylene]-1,2,3,4-Tetrahydro-Quinoline-2-Carboxylic Acid] | 12.6 nM |
| O=C(/C=C1\CC(C(=O)O)Nc2cc(Cl)cc(Cl)c21)Nc1cccc(Cl)c1 (racemic) [Example 7, (+/-)(E)-5,7-Dichloro-4-[3-(Chloro)Phenylcarbamoylmethylene]-1,2,3,4-Tetrahydro-Quinoline-2-Carboxylic Acid] | 39.8 nM |
| CC(C)CC(=O)Nc1ccc(NC(=O)/C=C2\CC(C(=O)O)Nc3cc(Cl)cc(Cl)c32)cc1 (racemic) [Example 19, (+/-)(E)-5,7-Dichloro-4-[4-(3-Methyl-Butyrylamino)-Phenylcarbamoylmethylene]-1,2,3,4-Tetrahydro-Quinoline-2-Carboxylic Acid] | 18.6 nM |
| Nc1ccc(NC(=O)/C=C2\CC(C(=O)O)Nc3cc(Cl)cc(Cl)c32)cc1 (racemic) [Example 8, (+/-)(E)-4-(4-Amino-Phenylcarbamoylmethylene)-5,7-Dichloro-1,2,3,4-Tetrahydro-Quinoline-2-Carboxylic Acid] | 15.8 nM |
| O=C(/C=C1\CC(C(=O)[O-])Nc2cc(Cl)cc(Cl)c21)Nc1ccccc1.[Na+] (racemic) [Sodium Salt] | 6.31 nM |

Test system: NMDA induced convulsions in mice
Experiment: Inhibition of NMDA induced convulsions in the mouse (procedure of Chiamulera C et al.)
Type: in vivo
Details: iv, read-out: ED50 (dose required to protect 50% of the animals from the convulsive action of the NMDA)
From the text: In this test the ability of the compound when administered iv to inhibit the generalized seizures induced by an intracerebroventricular injection of NMDA in mice was examined at a number of dose levels.

| Structure (SMILES) | ED50 |
| --- | --- |
| O=C(/C=C1\CC(C(=O)[O-])Nc2cc(Cl)cc(Cl)c21)Nc1ccccc1.[Na+] (racemic) | 1 mg/kg |

Same assay, conditions: mice, compound iv, generalized seizures induced by intracerebroventricular injection of NMDA, read-out: ED50 (dose required to protect 50% of the animals from the convulsive action of the NMDA)

| Structure (SMILES) | ED50 |
| --- | --- |
| CC(=O)Nc1ccc(NC(=O)/C=C2\CC(C(=O)O)Nc3cc(Cl)cc(Cl)c32)cc1 (racemic) [Example 5, (+/-)(E)-4-(4-Acetylamino-Phenylcarbamoylmethylene)-5,7-Dichloro-1,2,3,4-Tetrahydro-Quinoline-2-Carboxylic Acid] | 0.2 mg/kg |
| O=C(/C=C1\CC(C(=O)[O-])Nc2cc(Cl)ccc21)Nc1ccccc1.[Na+] (racemic) [Example 2, (+/-)(E)7-Chloro-4-Phenylcarbamoylmethylene-1,2,3,4-Tetrahydro-Quinoline-2- Carboxylic Acid Sodium Salt] | 0.2 mg/kg |
